Source: patent publication US20050208496A1, “Methods of testing for bronchial asthma or chronic obstructive pulmonary disease” (Genox Research, Inc., priority 2002, published 2005)
Like-named read-outs stand apart in the source and are kept apart here.

System: respiratory epithelial cells
[1] = IL-13 vs no stimulation, lot 2 Day 3 AI
[2] = IL-13 vs no stimulation, lot 2 Day 7 AI

In the case of “IL-13: human IL-13 (Peprotech, Inc.) added to the medium at 50 ng/mL to stimulate respiratory epithelial cells”, the “IGFBP6 (1736_at) expression change” value [1] is reported as −4.7, the “LOH11CR2A (38151_at) expression change” value [1] is reported as −3.2 and the “MMP9 (31859_at) expression change” value [1] is reported as −18. For the same substance, the “MMP10 (1006_at) expression change” value [1] was −30.3, the “MSMB (32149_at) expression change” value [1] was −21.3 and the “NDRG1 (36933_at) expression change” value [1] was −2.9. The “NOTCH3 (38750_at) expression change” value [1] was −4.5, the “PFTK1 (36502_at) expression change” value [1] was −2.3 and the “PSCA (33792_at) expression change” value [1] was −4.9. For the same substance, the “PTK2B (33804_at) expression change” value [1] was −3.7, the “PTPRZ1 (1364_at) expression change” value [1] was −4.3 and the “RARRES1 (1042_at) expression change” value [1] was −3.1. The “RARRES1 (33505_at) expression change” value [1] was −3.5, the “RDC1 (34288_at) expression change” value [1] was −3.7 and the “RTP801 (39827_at) expression change” value [1] was −2.3. For the same substance, the “S100A8 (41096_at) expression change” value [1] was −3, the “SEC14L2 (32817_at) expression change” value [1] was −6.9 and the “SERPINA3 (33825_at) expression change” value [1] was −7. The “SERPINE1 (672_at) expression change” value [1] was −62.1, the “SERPINE1 (38125_at) expression change” value [1] was −11.2 and the “STK39 (39120_at) expression change” value [1] was −2.6. For the same substance, the “TSPAN-5 (40990_at) expression change” value [1] was −3.2, the “VRP (38223_at) expression change” value [1] was −2 and the “c-fos (1915_s_at) expression change” value [1] was −2. For the same substance, the “c-fos (1916_s_at) expression change” value [1] was −3.1, the “AGR2 (38827_at) expression change” value [2] was −3.7 and the “AKR1B10 (37482_at) expression change” value [2] was −9.7. For the same substance, the “AKR1C3 (37399_at) expression change” value [2] was −2.8, the “ANXA10 (32349_at) expression change” value [2] was −18.9 and the “APM2 (32527_at) expression change” value [2] was −3.3. The “BCAS1 (37821_at) expression change” value [2] was −13.2, the “BDKRB2 (39310_at) expression change” value [2] was −4.2 and the “BENE (33331_at) expression change” value [2] was −8.5. For the same substance, the “C4.4A (41641_at) expression change” value [2] was −6.8, the “CRA (1230_g_at) expression change” value [2] was −3 and the “CTSL2 (40717_at) expression change” value [2] was −5.6. The “DEFB2 (32464_at) expression change” value [2] was −2.6, the “ECM1 (37600_at) expression change” value [2] was −11 and the “EPHA1 (1108_s_at) expression change” value [2] was −3.6. The “ETFB (36881_at) expression change” value [2] was −3.4, the “FABP5 (39799_at) expression change” value [2] was −3 and the “GABRE (34280_at) expression change” value [2] was −3.2. The “HLA-DPB1 (38095_i_at) expression change” value [2] was −2.5, the “HLA-DPB1 (38096_f_at) expression change” value [2] was −3.3 and the “IGFBP6 (1736_at) expression change” value [2] was −7.2. For the same substance, the “IMPA2 (36496_at) expression change” value [2] was −2.7, the “MMP9 (31859_at) expression change” value [2] was −113.5 and the “MMP10 (1006_at) expression change” value [2] was −35.2. For the same substance, the “MN1 (37283_at) expression change” value [2] was −7.3, the “MSMB (32149_at) expression change” value [2] was −8.1 and the “NCALD (38803_at) expression change” value [2] was −4.2. The “NOTCH3 (38750_at) expression change” value [2] was −3.5, the “PFTK1 (36502_at) expression change” value [2] was −3.5 and the “PSCA (33792_at) expression change” value [2] was −9.2. The “PTK2B (33804_at) expression change” value [2] was −3.5, the “PTPRZ1 (1364_at) expression change” value [2] was −14.9 and the “RARRES1 (1042_at) expression change” value [2] was −2.4. For the same substance, the “RARRES1 (33505_at) expression change” value [2] was −3.4, the “RDC1 (34288_at) expression change” value [2] was −3 and the “RTP801 (39827_at) expression change” value [2] was −2.4. The “S100A8 (41096_at) expression change” value [2] was −6.1, the “SERPINA3 (33825_at) expression change” value [2] was −9.3 and the “SERPINB1 (33305_at) expression change” value [2] was −2.9. For the same substance, the “SERPINB5 (862_at) expression change” value [2] was −2.2, the “SERPINE1 (672_at) expression change” value [2] was −34.4 and the “SERPINE1 (38125_at) expression change” value [2] was −11. The “STK39 (39120_at) expression change” value [2] was −2.3, the “TSPAN-5 (40990_at) expression change” value [2] was −6 and the “VRP (38223_at) expression change” value [2] was −2.4. For the same substance, the “c-fos (1915_s_at) expression change” value [2] was −2.3, the “c-fos (1916_s_at) expression change” value [2] was −3.6 and the “pendrin gene expression level, factor of increase in response to IL-13 stimulation” value (IMM method, day 3 and day 7, both Lots 1 and 2) was at least 20. For the same substance, the “pendrin gene (36376_at, AF030880) expression fold change upon IL-13 stimulation, HG-U95A chip” value (Lot 2, Day 3, AI) was 118.3, the “pendrin gene (36376_at, AF030880) expression fold change upon IL-13 stimulation, HG-U95A chip” value (Lot 2, Day 7, AI) was 58.2 and the “AA149682 (51925_at) expression fold change” value (lot 1, Day 3, AI method) was 2.9 fold. For the same substance, the “AA420479 (52539_at) expression fold change” value (lot 1, Day 3, AI method) was 3.8 fold, the “AA541787 (52622_at) expression fold change” value (lot 1, Day 3, AI method) was 3.3 fold and the “AA582926 (52307_at) expression fold change” value (lot 1, Day 3, AI method) was 2.4 fold. For the same substance, the “ACP5 (677_s_at) expression, fold change upon IL-13 stimulation” value (lot 1, Day 3, AI method) was −2.8 fold, the “ADAM8 (40712_at) expression, fold change upon IL-13 stimulation” value (lot 1, Day 3, AI method) was 5.8 fold and the “ADAM28 (35479_at) expression, fold change upon IL-13 stimulation” value (lot 1, Day 3, AI method) was 9 fold. The “AI310524 (47087_at) expression fold change” value (lot 1, Day 3, AI method) was 3.6 fold, the “AI565105 (54886_at) expression fold change” value (lot 1, Day 3, AI method) was 2.8 fold and the “AI659927 (54033_at) expression fold change” value (lot 1, Day 3, AI method) was 4.2 fold. The “AI718385 (53061_at) expression fold change” value (lot 1, Day 3, AI method) was 4.6 fold, the “AI809925 (53010_at) expression fold change” value (lot 1, Day 3, AI method) was 3.1 fold and the “AI989346 (52327_s_at) expression fold change” value (lot 1, Day 3, AI method) was 2.9 fold. For the same substance, the “AKAP2 (35985_at) expression, fold change upon IL-13 stimulation” value (lot 1, Day 3, AI method) was 6 fold, the “AKAP2 (48035_at) expression fold change” value (lot 1, Day 3, AI method) was 6.6 fold and the “ALOX15 (34636_at) expression, fold change upon IL-13 stimulation” value (lot 1, Day 3, AI method) was 47.8 fold. The “BAL (52167_at) expression fold change” value (lot 1, Day 3, AI method) was 3.5 fold, the “BRCA1 (626_s_at) expression fold change” value (lot 1, Day 3, AI method) was 9.1 fold and the “BST2 (39061_at) expression, fold change upon IL-13 stimulation” value (lot 1, Day 3, AI method) was 9.9 fold. For the same substance, the “C1S (40496_at) expression, fold change upon IL-13 stimulation” value (lot 1, Day 3, AI method) was 3.3 fold, the “C21orf11 (58957_at) expression fold change” value (lot 1, Day 3, AI method) was 6.6 fold and the “CCND3 (1794_at) expression fold change upon IL-13 stimulation” value (lot 1, Day 3, AI method) was 2.2 fold. For the same substance, the “CCND3 (1795_g_at) expression fold change upon IL-13 stimulation” value (lot 1, Day 3, AI method) was 2.2 fold, the “CD47 (37890_at) expression fold change” value (lot 1, Day 3, AI method) was 2.1 fold and the “CDH6 (1620_at) expression fold change upon IL-13 stimulation” value (lot 1, Day 3, AI method) was 4.3 fold. For the same substance, the “CDH6 (57421_at) expression fold change” value (lot 1, Day 3, AI method) was 3.5 fold, the “CDH26 (46916_at) expression fold change” value (lot 1, Day 3, AI method) was 8.9 fold and the “CH25H (32363_at) expression, fold change upon IL-13 stimulation” value (lot 1, Day 3, AI method) was 9.9 fold. The “CLDN1 (46260_at) expression fold change” value (lot 1, Day 3, AI method) was 2.4 fold, the “CLDN4 (35276_at) expression, fold change upon IL-13 stimulation” value (lot 1, Day 3, AI method) was 2.3 fold and the “CTSC (133_at) expression, fold change upon IL-13 stimulation” value (lot 1, Day 3, AI method) was 3.5 fold. For the same substance, the “CXCL16 (44095_at) expression fold change” value (lot 1, Day 3, AI method) was 2.5 fold.
